# Measured values as given in patent US10738028B2, “Spiro three-membered ring, spiro five-membered ring peptide deformylase inhibitor and use thereof in antibacteria and anti-tumor” (priority 2016, dated 2020).
# Legend:
# Format in all cases: cell-based
# [1] = test system: HCT-116 colorectal cancer cell line; test: CCK-8 proliferation inhibition; settings: Homo sapiens, HCT-116, 72 h, concentration of 30 μM; 72 hours; CCK-8; read-out: HCT116 inhibition rate/%
# Procedure, shortened: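 Proliferation over 72 hours of compound treatment was measured with CCK-8 against a 1‰ DMSO control.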
# [2] = test system: Streptococcus pneoumoniae (SPN); test: MIC, two-fold agar dilution (CLSI), clinical isolates
# Excerpt: (§1) 1. The invention adopts the two-fold agar dilution method recommended by the operating procedure of antimicrobial susceptibility testing set by American Clinical and Laboratory Standards Institute (CLSI) to determine the Minimum Inhibitory Concentration (MIC) of the test samples against the tested strains.
# [3] = test system: methicillin-resistant Staphylococcus aureus (MRSA); test: as above
# Excerpt: as §1
# [4] = test system: methicillin-sensitive Staphylococcus epidermidis (MSSE); test: as above
# Excerpt: as §1
# [5] = test system: Escherichia coli (including ESBLs, non-ESBLs); test: as above
# Excerpt: as §1
# [6] = test system: Moraxella catarrhalis (BCA); test: as above
# Excerpt: as §1
# [7] = test system: methicillin-resistant Staphylococcus epidermidis (MRSE); test: as above
# Excerpt: as §1
# [8] = test system: methicillin-sensitive Staphylococcus aureus (MSSA); test: as above
# Excerpt: as §1
# [9] = test system: Enterococcus faecium (EFM); test: as above
# Excerpt: as §1
# [10] = test system: Enterococcus faecalis (EFA); test: as above
# Excerpt: as §1
smiles,measurement,setting,value
O=CN(O)C[C@@H](CC1CCCC1)C(=O)N1CC2(CC2)C[C@H]1C(=O)Nc1cnccn1 [Example 26],inhibition at 30 µM,[1],18%
same,MIC (anti-bacterial activity),[2]; strain SPN 16-2,0.25 µg/mL
same,MIC (anti-bacterial activity),[2]; strain SPN 16-4,2 µg/mL
same,MIC (anti-bacterial activity),[3]; strain MRSA 15-1,0.25 µg/mL
same,MIC (anti-bacterial activity),[3]; strain MRSA 15-2,0.25 µg/mL
same,MIC (anti-bacterial activity),[3]; strain MRSA 15-3,0.25 µg/mL
same,MIC (anti-bacterial activity),[3]; strain MRSA 15-4,0.25 µg/mL
same,MIC (anti-bacterial activity),[4]; strain MSSE 15-3,0.125 µg/mL
same,MIC (anti-bacterial activity),[4]; strain MSSE 15-4,0.5 µg/mL
same,MIC (anti-bacterial activity),[4]; strain MSSE 15-5,0.5 µg/mL
same,MIC (anti-bacterial activity),[4]; strain MSSE 15-6,0.5 µg/mL
same,MIC (anti-bacterial activity),[5]; strain ECO+ 15-1,32 µg/mL
same,MIC (anti-bacterial activity),[5]; strain ECO+ 15-2,32 µg/mL
same,MIC (anti-bacterial activity),[5]; strain ECO+ 15-3,32 µg/mL
same,MIC (anti-bacterial activity),[5]; strain ECO+ 15-4,32 µg/mL
same,MIC (anti-bacterial activity),[5]; strain ECO− 15-1,32 µg/mL
same,MIC (anti-bacterial activity),[5]; strain ECO− 15-2,32 µg/mL
same,MIC (anti-bacterial activity),[5]; strain ECO− 15-3,32 µg/mL
same,MIC (anti-bacterial activity),[5]; strain ECO− 15-4,32 µg/mL
same,MIC (anti-bacterial activity),[6]; strain BCA 14-1,0.5 µg/mL
same,MIC (anti-bacterial activity),[6]; strain BCA 14-4,0.5 µg/mL
same,MIC (anti-bacterial activity),[6]; strain BCA 14-5,0.25 µg/mL
same,MIC (anti-bacterial activity),[6]; strain BCA 14-6,0.5 µg/mL
same,MIC (anti-bacterial activity),[6]; strain BCA 14-7,0.25 µg/mL
same,MIC (anti-bacterial activity),[6]; strain BCA 14-8,0.5 µg/mL
same,MIC (anti-bacterial activity),[6]; strain BCA 14-10,0.25 µg/mL
same,MIC (anti-bacterial activity),[7]; strain MRSE 15-1,0.125 µg/mL
same,MIC (anti-bacterial activity),[7]; strain MRSE 15-2,0.5 µg/mL
same,MIC (anti-bacterial activity),[7]; strain MRSE 15-3,0.5 µg/mL
same,MIC (anti-bacterial activity),[7]; strain MRSE 15-7,0.5 µg/mL
same,MIC (anti-bacterial activity),[8]; strain MSSA 15-3,0.25 µg/mL
same,MIC (anti-bacterial activity),[8]; strain MSSA 15-4,0.25 µg/mL
same,MIC (anti-bacterial activity),[8]; strain MSSA 15-5,0.25 µg/mL
same,MIC (anti-bacterial activity),[8]; strain MSSA 15-6,0.25 µg/mL
same,MIC (anti-bacterial activity),[9]; strain EFM 15-1,0.5 µg/mL
same,MIC (anti-bacterial activity),[9]; strain EFM 15-2,0.5 µg/mL
same,MIC (anti-bacterial activity),[9]; strain EFM 15-3,0.25 µg/mL
same,MIC (anti-bacterial activity),[9]; strain EFM 15-4,0.5 µg/mL
same,MIC (anti-bacterial activity),[9]; strain EFM 15-5,0.25 µg/mL
same,MIC (anti-bacterial activity),[9]; strain EFM 15-6,0.5 µg/mL
same,MIC (anti-bacterial activity),[10]; strain EFA 15-1,2 µg/mL
same,MIC (anti-bacterial activity),[10]; strain EFA 15-2,2 µg/mL
same,MIC (anti-bacterial activity),[10]; strain EFA 15-3,0.5 µg/mL
same,MIC (anti-bacterial activity),[10]; strain EFA 15-4,2 µg/mL
same,MIC (anti-bacterial activity),[10]; strain EFA 15-5,2 µg/mL
same,MIC (anti-bacterial activity),[10]; strain EFA 15-6,2 µg/mL
same,MIC (anti-bacterial activity),[10]; strain EFA 15-9,2 µg/mL
"O=CN(O)C[C@@H](CC1CCCC1)C(=O)N1CC2(CC2)C[C@H]1C(=O)Nc1ccncn1 [Example 27, (S)-5-((R)-3-cyclopentyl-2-((N-hydroxyformamido)methyl)propionyl)-N-(pyrimidin-4-yl)-5-spiro[2.4]heptane-6-carboxamide]",inhibition at 30 µM,[1],17%
same,MIC (anti-bacterial activity),[2]; strain SPN 16-2,0.25 µg/mL
same,MIC (anti-bacterial activity),[2]; strain SPN 16-4,2 µg/mL
same,MIC (anti-bacterial activity),[3]; strain MRSA 15-1,0.125 µg/mL
same,MIC (anti-bacterial activity),[3]; strain MRSA 15-2,0.125 µg/mL
same,MIC (anti-bacterial activity),[3]; strain MRSA 15-3,0.125 µg/mL
same,MIC (anti-bacterial activity),[3]; strain MRSA 15-4,0.125 µg/mL
same,MIC (anti-bacterial activity),[4]; strain MSSE 15-3,0.125 µg/mL
same,MIC (anti-bacterial activity),[4]; strain MSSE 15-4,0.125 µg/mL
same,MIC (anti-bacterial activity),[4]; strain MSSE 15-5,0.125 µg/mL
same,MIC (anti-bacterial activity),[4]; strain MSSE 15-6,0.125 µg/mL
same,MIC (anti-bacterial activity),[5]; strain ECO+ 15-1,16 µg/mL
same,MIC (anti-bacterial activity),[5]; strain ECO+ 15-2,32 µg/mL
same,MIC (anti-bacterial activity),[5]; strain ECO+ 15-3,32 µg/mL
same,MIC (anti-bacterial activity),[5]; strain ECO+ 15-4,32 µg/mL
same,MIC (anti-bacterial activity),[5]; strain ECO− 15-1,32 µg/mL
same,MIC (anti-bacterial activity),[5]; strain ECO− 15-2,32 µg/mL
same,MIC (anti-bacterial activity),[5]; strain ECO− 15-3,32 µg/mL
same,MIC (anti-bacterial activity),[5]; strain ECO− 15-4,32 µg/mL
same,"Anti-bacterial activity (MIC), strain BCA 14-10",[6]; clinical isolate BCA 14-10,0.5 µg/mL
same,MIC (anti-bacterial activity),[6]; strain BCA 14-1,2 µg/mL
same,MIC (anti-bacterial activity),[6]; strain BCA 14-4,2 µg/mL
same,MIC (anti-bacterial activity),[6]; strain BCA 14-5,0.25 µg/mL
same,MIC (anti-bacterial activity),[6]; strain BCA 14-6,0.125 µg/mL
same,MIC (anti-bacterial activity),[6]; strain BCA 14-7,0.25 µg/mL
same,MIC (anti-bacterial activity),[6]; strain BCA 14-8,0.5 µg/mL
same,MIC (anti-bacterial activity),[7]; strain MRSE 15-1,0.06 µg/mL
same,MIC (anti-bacterial activity),[7]; strain MRSE 15-2,0.125 µg/mL
same,MIC (anti-bacterial activity),[7]; strain MRSE 15-3,0.125 µg/mL
same,MIC (anti-bacterial activity),[7]; strain MRSE 15-7,0.125 µg/mL
same,MIC (anti-bacterial activity),[8]; strain MSSA 15-3,0.125 µg/mL
same,MIC (anti-bacterial activity),[8]; strain MSSA 15-4,0.125 µg/mL
same,MIC (anti-bacterial activity),[8]; strain MSSA 15-5,0.125 µg/mL
same,MIC (anti-bacterial activity),[8]; strain MSSA 15-6,0.125 µg/mL
same,MIC (anti-bacterial activity),[9]; strain EFM 15-1,0.25 µg/mL
same,MIC (anti-bacterial activity),[9]; strain EFM 15-2,1 µg/mL
same,MIC (anti-bacterial activity),[9]; strain EFM 15-3,0.25 µg/mL
same,MIC (anti-bacterial activity),[9]; strain EFM 15-4,0.5 µg/mL
same,MIC (anti-bacterial activity),[9]; strain EFM 15-5,0.25 µg/mL
same,MIC (anti-bacterial activity),[9]; strain EFM 15-6,0.5 µg/mL
same,MIC (anti-bacterial activity),[10]; strain EFA 15-1,2 µg/mL
same,MIC (anti-bacterial activity),[10]; strain EFA 15-2,2 µg/mL
same,MIC (anti-bacterial activity),[10]; strain EFA 15-3,2 µg/mL
same,MIC (anti-bacterial activity),[10]; strain EFA 15-4,2 µg/mL
same,MIC (anti-bacterial activity),[10]; strain EFA 15-5,2 µg/mL
same,MIC (anti-bacterial activity),[10]; strain EFA 15-6,2 µg/mL
same,MIC (anti-bacterial activity),[10]; strain EFA 15-9,2 µg/mL
